Test results: patent US10519134B2, “Pyrazole compounds and methods of making and using same” (Lundbeck La Jolla Research Center, Inc., priority 2015, dated 2019)

Assays:
[1] = biological target: T1, FAAH (Mus musculus, UniProt O08914); assay: In vitro competitive activity-based protein profiling (mouse), FAAH gel band; format: biochemical; conditions: for inhibition at 1 µM: read-out: FAAH % inh. 1 μM; for IC50: mouse
T1 construct: Proteomes (mouse brain membrane fraction or cell lysates); from tissue; host or cells: mouse brain membrane fraction (or cell lysates)
T1 sequence (O08914 1-579): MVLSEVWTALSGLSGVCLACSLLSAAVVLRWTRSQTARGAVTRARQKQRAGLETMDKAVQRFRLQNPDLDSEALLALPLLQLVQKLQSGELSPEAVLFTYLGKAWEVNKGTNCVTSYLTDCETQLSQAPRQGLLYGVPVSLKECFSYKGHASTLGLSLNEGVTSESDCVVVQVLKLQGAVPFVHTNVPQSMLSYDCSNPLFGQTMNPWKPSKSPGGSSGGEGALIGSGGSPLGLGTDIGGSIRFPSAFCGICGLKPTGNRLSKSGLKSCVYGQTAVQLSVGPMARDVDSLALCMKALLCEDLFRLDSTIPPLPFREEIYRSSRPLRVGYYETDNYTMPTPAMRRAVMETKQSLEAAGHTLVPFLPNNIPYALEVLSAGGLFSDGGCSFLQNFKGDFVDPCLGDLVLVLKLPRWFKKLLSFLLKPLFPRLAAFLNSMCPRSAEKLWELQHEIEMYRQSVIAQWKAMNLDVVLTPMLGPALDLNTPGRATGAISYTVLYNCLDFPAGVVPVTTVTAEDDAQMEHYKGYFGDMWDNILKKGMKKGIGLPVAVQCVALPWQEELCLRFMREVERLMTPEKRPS
Experimental: (§1) In Vitro Competitive Activity-Based Protein Profiling (Mouse).
(§2) Proteomes (mouse brain membrane fraction or cell lysates) (50 μL, 1.0 mg/mL total protein concentration) were preincubated with varying concentrations of inhibitors at 37° C. After 30 min, FP-Rh or HT-01 (1.0 μL, 50 μM in DMSO) was added and the mixture was incubated for another 30 min at 37° C. Reactions were quenched with SDS loading buffer (15 μL—4×) and run on SDS-PAGE. Following gel imaging, serine hydrolase activity was determined by measuring fluorescent intensity of gel bands corresponding to MAGL, ABHD6, and FAAH, using ImageJ 1.43u software.

[2] = biological target: T2, MAGL (Mus musculus, UniProt O35678); assay: In vitro competitive activity-based protein profiling (mouse), MAGL gel band; format: biochemical; conditions: for inhibition at 1 µM: read-out: MAGL % inh. 1 μM; for IC50: mouse
T2 construct: Proteomes (mouse brain membrane fraction or cell lysates); from tissue; host or cells: mouse brain membrane fraction (or cell lysates)
T2 sequence (O35678 1-303): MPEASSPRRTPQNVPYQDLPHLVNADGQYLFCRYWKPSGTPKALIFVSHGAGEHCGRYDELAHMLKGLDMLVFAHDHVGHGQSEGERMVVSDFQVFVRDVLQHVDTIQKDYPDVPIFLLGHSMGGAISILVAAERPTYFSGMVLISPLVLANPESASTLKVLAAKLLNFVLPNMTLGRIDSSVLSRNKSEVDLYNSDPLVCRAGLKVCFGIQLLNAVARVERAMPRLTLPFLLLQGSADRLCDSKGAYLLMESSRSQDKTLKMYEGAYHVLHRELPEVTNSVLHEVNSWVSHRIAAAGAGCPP
Experimental: as §1, §2

Row | inhibition at 1 µM [1] [%] | inhibition at 1 µM [2] [%] | IC50 [1] [µM] | IC50 [2] [nM] | SMILES
1 | 0 to 25 | 50 to 75 |  |  | CC(=O)N1CC2(CCN(c3ccccc3CN3CCN(C(=O)n4ccc(NS(C)(=O)=O)n4)CC3)C2)C1 [Example 122, N-(1-(4-(2-(2-acetyl-2,6-diazaspiro[3.4]octan-6-yl)benzyl)piperazine-1-carbonyl)-1H-pyrazol-3-yl) methanesulfonamide]
2 | 0 to 25 | 50 to 75 |  |  | CS(=O)(=O)Nc1ccn(C(=O)N2CCN(Cc3cc(C(F)(F)F)ccc3N3CCOCC3)CC2)n1 [Example 124, N-(1-(4-(2-morpholino-5-(trifluoromethyl)benzyl)piperazine-1-carbonyl)-1H-pyrazol-3-yl) methanesulfonamide]
3 | 0 to 25 | ≥ 75 |  |  | CS(=O)(=O)Nc1ccn(C(=O)N2CCC3(CCCN3Cc3ccc(C(F)(F)F)cc3N3CCOCC3)CC2)n1 [Example 126, N-(1-(1-(2-morpholino-4-(trifluoromethyl)benzyl)-1,8-diazaspiro[4.5]decane-8-carbonyl)-1H-pyrazol-3-yl)methanesulfonamide]
4 | 0 to 25 | ≥ 75 | 1 to 10 | ≤ 100 | CS(=O)(=O)Nc1ccn(C(=O)N2CCN(Cc3ccc(Cl)cc3N3CCCCC3)CC2)n1 [Example 128, N-(1-(4-(4-chloro-2-(piperidin-1-yl)benzyl)piperazine-1-carbonyl)-1H-pyrazol-3-yl) methanesulfonamide]
5 | 0 to 25 | ≥ 75 | 1 to 10 | ≤ 100 | CS(=O)(=O)Nc1ccn(C(=O)N2CCN(Cc3ccc(C(F)(F)F)cc3N3CCCCC3)CC2)n1 [Example 129, N-(1-(4-(2-(piperidin-1-yl)-4-(trifluoromethyl)benzyl)piperazine-1-carbonyl)-1H-pyrazol-3-yl) methanesulfonamide]
6 | 0 to 25 | 50 to 75 |  |  | CS(=O)(=O)Nc1ccn(C(=O)N2CCC3(CCCN3Cc3ccc(Cl)cc3N3CCCC3)CC2)n1 [Example 131, N-(1-(1-(4-chloro-2-(pyrrolidin-1-yl)benzyl)-1,8-diazaspiro[4.5]decane-8-carbonyl)-1H-pyrazol-3-yl)methanesulfonamide]
7 | 0 to 25 | 50 to 75 |  |  | CS(=O)(=O)Nc1ccn(C(=O)N2CCC3(CCCN3Cc3ccc(Cl)cc3N3CCCCC3)CC2)n1 [Example 132, N-(1-(1-(4-chloro-2-(piperidin-1-yl)benzyl)-1,8-diazaspiro[4.5]decane-8-carbonyl)-1H-pyrazol-3-yl)methanesulfonamide]
8 | 0 to 25 | ≥ 75 | 1 to 10 | 100 to 1000 | CS(=O)(=O)Nc1ccn(C(=O)N2CCC3(CCCN3Cc3ccc(C(F)(F)F)cc3N3CCCCC3)CC2)n1 [Example 133, N-(1-(1-(2-(piperidin-1-yl)-4-(trifluoromethyl)benzyl)-1,8-diazaspiro[4.5]decane-8-carbonyl)-1H-pyrazol-3-yl)methanesulfonamide]

The next lines start with the molecule.

Row | SMILES | inhibition at 1 µM [1] [%] | inhibition at 1 µM [2] [%] | IC50 [1] [µM] | IC50 [2] [nM]
9 | CC(=O)Nc1ccn(C(=O)N2CCN(Cc3ccc(C(F)(F)F)cc3OC3CCS(=O)(=O)CC3)CC2)n1 [Example 77, N-(1-(4-(2-((1,1-dioxidotetrahydro-2H-thiopyran-4-yl)oxy)-4-(trifluoromethyl)benzyl)piperazine-1-carbonyl)-1H-pyrazol-3-yl)acetamide] | 0 to 25 | ≥ 75 |  | 
10 | CC(=O)Nc1ccn(C(=O)N2CCC3(CCCN3Cc3cc(Oc4nc5ccccc5s4)cc(C(F)(F)F)c3)CC2)n1 [Example 86, N-(1-(1-(3-(benzo[d]thiazol-2-yloxy)-5-(trifluoromethyl)benzyl)-1,8-diazaspiro[4.5]decane-8-carbonyl)-1H-pyrazol-3-yl)acetamide] | 50 to 75 | ≥ 75 |  | 
11 | CC(=O)Nc1ccn(C(=O)N2CCC3(CCCN3Cc3ccc(C(F)(F)F)cc3OC3CCS(=O)(=O)CC3)CC2)n1 [Example 87, N-(1-(1-(2-((1,1-dioxidotetrahydro-2H-thiopyran-4-yl)oxy)-4-(trifluoromethyl)benzyl)-1,8-diazaspiro[4.5]decane-8-carbonyl)-1H-pyrazol-3-yl)acetamide] | 25 to 50 | ≥ 75 | 1 to 10 | 100 to 1000
12 | CC(=O)Nc1ccn(C(=O)N2CCC3(CCCN3Cc3ccc(C(F)(F)F)cc3OCC(=O)N3CCCC3)CC2)n1 [Example 89, N-(1-(1-(2-(2-oxo-2-(pyrrolidin-1-yl)ethoxy)-4-(trifluoromethyl)benzyl)-1,8-diazaspiro[4.5]decane-8-carbonyl)-1H-pyrazol-3-yl)acetamide] | 0 to 25 | ≥ 75 |  | 
13 | O=C(CO)Nc1ccn(C(=O)N2CCN(Cc3ccc(Cl)cc3)CC2)n1 [Example 91, N-(1-(4-(4-chlorobenzyl)piperazine-1-carbonyl)-1H-pyrazol-3-yl)-2-hydroxyacetamide] | 0 to 25 | ≥ 75 |  | 
14 | O=C(CO)Nc1ccn(C(=O)N2CCN(Cc3cccc(Oc4ccccc4)c3)CC2)n1 [Example 92, 2-hydroxy-N-(1-(4-(3-phenoxybenzyl)piperazine-1-carbonyl)-1H-pyrazol-3-yl)acetamide] | ≥ 75 | ≥ 75 |  | 
15 | CC(=O)Nc1ccn(C(=O)N2CCC3(CCCN3Cc3ccc4c(c3)COC4)CC2)n1 [Example 97, N-(1-(1-((1,3-dihydroisobenzofuran-5-yl)methyl)-1,8-diazaspiro[4.5]decane-8-carbonyl)-1H-pyrazol-3-yl)acetamide] | 0 to 25 | ≥ 75 | 1 to 10 | 100 to 1000
16 | CC(=O)Nc1ccn(C(=O)N2CCC3(CCCN3Cc3ccc4c(c3)OCCO4)CC2)n1 [Example 98, N-(1-(1-((2,3-dihydrobenzo[b][1,4]dioxin-6-yl)methyl)-1,8-diazaspiro[4.5]decane-8-carbonyl)-1H-pyrazol-3-yl)acetamide] | 0 to 25 | ≥ 75 | 1 to 10 | 100 to 1000
17 | CC(=O)Nc1ccn(C(=O)N2CCC3(CCCN3Cc3ccc(N4CCOCC4)c(Cl)c3)CC2)n1 [Example 99, N-(1-(1-(3-chloro-4-morpholinobenzyl)-1,8-diazaspiro[4.5]decane-8-carbonyl)-1H-pyrazol-3-yl)acetamide] | 0 to 25 | ≥ 75 | 1 to 10 | 100 to 1000
18 | CC(=O)Nc1ccn(C(=O)N2CCC3(CCCN3Cc3ccc(N4CCCC4)c(Cl)c3)CC2)n1 [Example 100, N-(1-(1-(3-chloro-4-(pyrrolidin-1-yl)benzyl)-1,8-diazaspiro[4.5]decane-8-carbonyl)-1H-pyrazol-3-yl)acetamide] | 0 to 25 | ≥ 75 | 1 to 10 | ≤ 100
19 | CC(=O)Nc1ccn(C(=O)N2CCC3(CCCN3Cc3ccc(C(F)(F)F)c(C(=O)O)c3)CC2)n1 [Example 108, 5-((8-(3-acetamido-1H-pyrazole-1-carbonyl)-1,8-diazaspiro[4.5]decan-1-yl)methyl)-2-(trifluoromethyl)benzoic Acid] | 0 to 25 | 50 to 75 |  | 
20 | CC(=O)Nc1ccn(C(=O)N2CCC3(CCCN3Cc3ccc(C(=O)O)c(C(F)(F)F)c3)CC2)n1 [Example 110, 4-((8-(3-acetamido-1H-pyrazole-1-carbonyl)-1,8-diazaspiro[4.5]decan-1-yl)methyl)-2-(trifluoromethyl)benzoic Acid] | 0 to 25 | ≥ 75 |  | 
21 | CC(=O)Nc1ccn(C(=O)N2CCN(Cc3ccc(C#N)cc3-c3nnn[nH]3)CC2)n1 [Example 115, N-(1-(4-(4-cyano-2-(1H-tetrazol-5-yl)benzyl)piperazine-1-carbonyl)-1H-pyrazol-3-yl)acetamide] | 0 to 25 | ≥ 75 | 1 to 10 | 100 to 1000
22 | Cc1cc(CN2CCCC23CCN(C(=O)n2ccc(NC(=O)C(F)(F)F)n2)CC3)ccc1Cl [Example 117, N-(1-(1-(4-chloro-3-methylbenzyl)-1,8-diazaspiro[4.5]decane-8-carbonyl)-1H-pyrazol-3-yl)-2,2,2-trifluoroacetamide] | 0 to 25 | ≥ 75 |  | 
